Tests used:
cells = conditions: above 4° C.; cited from earlier work

Description for Fresh human hepatocytes: In this Example, testing was carried out to determine the effect of different concentrations of DMSO (0 to 2%) on the cell plateability/attachment using the inventive, direct NS plating method.
Fresh human hepatocytes having 78% viability, corresponding generally to customary thawed cell viability, were plated with DMSO in concentrations ranging from 0 to 2%. The cells were plated without Percoll density gradient centrifugation for both classical and NS methods. The cell seeding density was 0.37 million cells/well (MW24 plate) for both classical & NS methods. The cells were evaluated for cell morphology, plateability, and metabolic activity.
The DMSO, as a cryoprotectant included in freezing medium, has been tested at final concentrations up to 2% in the cell plating medium.

C[S+](C)[O-] [DMSO, dimethyl sulfoxide]
maximum tolerated DMSO percentage in hepatocyte-NS plating medium for cell attachment (Fresh human hepatocytes): less than 1 % (v/v)
DMSO concentration demonstrated to be toxic (cells): up to 2%
